Reference: the NIST ThermoML archive (doi:10.1016/j.jct.2016.08.005)

Settings: Liquid, Vibrating tube method

c1ccsc1 [thiophene]
Settings | mass density [kg/m3]
283.15 K, 100 kPa | 1076.4
283.15 K, 2000 kPa | 1077.94
283.15 K, 5000 kPa | 1080.27
283.15 K, 7000 kPa | 1081.81
283.15 K, 10000 kPa | 1084.09
283.15 K, 15000 kPa | 1087.78
283.15 K, 20000 kPa | 1091.37
283.15 K, 25000 kPa | 1094.82
283.15 K, 30000 kPa | 1098.18
283.15 K, 35000 kPa | 1101.44
283.15 K, 40000 kPa | 1104.61
283.15 K, 45000 kPa | 1107.7
283.15 K, 50000 kPa | 1110.71
283.15 K, 55000 kPa | 1113.62
283.15 K, 60000 kPa | 1116.47
283.15 K, 65000 kPa | 1119.27
288.15 K, 100 kPa | 1070.54
288.15 K, 2000 kPa | 1072.11
288.15 K, 5000 kPa | 1074.53
288.15 K, 7000 kPa | 1076.12
288.15 K, 10000 kPa | 1078.46
288.15 K, 15000 kPa | 1082.24
288.15 K, 20000 kPa | 1085.9
288.15 K, 25000 kPa | 1089.45
288.15 K, 30000 kPa | 1092.91
288.15 K, 35000 kPa | 1096.24
288.15 K, 40000 kPa | 1099.5
288.15 K, 45000 kPa | 1102.65
288.15 K, 50000 kPa | 1105.72
288.15 K, 55000 kPa | 1108.7
288.15 K, 60000 kPa | 1111.61
288.15 K, 65000 kPa | 1114.44
293.15 K, 100 kPa | 1064.59
293.15 K, 2000 kPa | 1066.21
293.15 K, 5000 kPa | 1068.67
293.15 K, 7000 kPa | 1070.33
293.15 K, 10000 kPa | 1072.75
293.15 K, 15000 kPa | 1076.63
293.15 K, 20000 kPa | 1080.39
293.15 K, 25000 kPa | 1084.05
293.15 K, 30000 kPa | 1087.58
293.15 K, 35000 kPa | 1091.01
293.15 K, 40000 kPa | 1094.34
293.15 K, 45000 kPa | 1097.57
293.15 K, 50000 kPa | 1100.7
293.15 K, 55000 kPa | 1103.77
293.15 K, 60000 kPa | 1106.72
293.15 K, 65000 kPa | 1109.63
298.15 K, 100 kPa | 1058.65
298.15 K, 2000 kPa | 1060.32
298.15 K, 5000 kPa | 1062.91
298.15 K, 7000 kPa | 1064.57
298.15 K, 10000 kPa | 1067.05
298.15 K, 15000 kPa | 1071.07
298.15 K, 20000 kPa | 1074.94
298.15 K, 25000 kPa | 1078.69
298.15 K, 30000 kPa | 1082.3
298.15 K, 35000 kPa | 1085.81
298.15 K, 40000 kPa | 1089.21
298.15 K, 45000 kPa | 1092.53
298.15 K, 50000 kPa | 1095.73
298.15 K, 55000 kPa | 1098.86
298.15 K, 60000 kPa | 1101.89
298.15 K, 65000 kPa | 1104.85
303.15 K, 100 kPa | 1052.71
303.15 K, 2000 kPa | 1054.43
303.15 K, 5000 kPa | 1057.07
303.15 K, 7000 kPa | 1058.82
303.15 K, 10000 kPa | 1061.36
303.15 K, 15000 kPa | 1065.48
303.15 K, 20000 kPa | 1069.46
303.15 K, 25000 kPa | 1073.3
303.15 K, 30000 kPa | 1077.03
303.15 K, 35000 kPa | 1080.62
303.15 K, 40000 kPa | 1084.1
303.15 K, 45000 kPa | 1087.49
303.15 K, 50000 kPa | 1090.79
303.15 K, 55000 kPa | 1093.96
303.15 K, 60000 kPa | 1097.06
303.15 K, 65000 kPa | 1100.09
308.15 K, 100 kPa | 1046.7
308.15 K, 2000 kPa | 1048.48
308.15 K, 5000 kPa | 1051.21
308.15 K, 7000 kPa | 1052.99
308.15 K, 10000 kPa | 1055.61
308.15 K, 15000 kPa | 1059.87
308.15 K, 20000 kPa | 1063.97
308.15 K, 25000 kPa | 1067.92
308.15 K, 30000 kPa | 1071.73
308.15 K, 35000 kPa | 1075.4
308.15 K, 40000 kPa | 1078.99
308.15 K, 45000 kPa | 1082.45
308.15 K, 50000 kPa | 1085.8
308.15 K, 55000 kPa | 1089.07
308.15 K, 60000 kPa | 1092.23
308.15 K, 65000 kPa | 1095.31
313.15 K, 100 kPa | 1040.68
313.15 K, 2000 kPa | 1042.52
313.15 K, 5000 kPa | 1045.35
313.15 K, 7000 kPa | 1047.19
313.15 K, 10000 kPa | 1049.91
313.15 K, 15000 kPa | 1054.25
313.15 K, 20000 kPa | 1058.47
313.15 K, 25000 kPa | 1062.52
313.15 K, 30000 kPa | 1066.43
313.15 K, 35000 kPa | 1070.21
313.15 K, 40000 kPa | 1073.88
313.15 K, 45000 kPa | 1077.41
313.15 K, 50000 kPa | 1080.86
313.15 K, 55000 kPa | 1084.2
313.15 K, 60000 kPa | 1087.42
313.15 K, 65000 kPa | 1090.59
318.15 K, 100 kPa | 1034.64
318.15 K, 2000 kPa | 1036.54
318.15 K, 5000 kPa | 1039.44
318.15 K, 7000 kPa | 1041.36
318.15 K, 10000 kPa | 1044.15
318.15 K, 15000 kPa | 1048.65
318.15 K, 20000 kPa | 1052.97
318.15 K, 25000 kPa | 1057.12
318.15 K, 30000 kPa | 1061.15
318.15 K, 35000 kPa | 1065.02
318.15 K, 40000 kPa | 1068.77
318.15 K, 45000 kPa | 1072.41
318.15 K, 50000 kPa | 1075.92
318.15 K, 55000 kPa | 1079.33
318.15 K, 60000 kPa | 1082.65
318.15 K, 65000 kPa | 1085.87
323.15 K, 100 kPa | 1028.59
323.15 K, 2000 kPa | 1030.52
323.15 K, 5000 kPa | 1033.54
323.15 K, 7000 kPa | 1035.52
323.15 K, 10000 kPa | 1038.37
323.15 K, 15000 kPa | 1042.99
323.15 K, 20000 kPa | 1047.45
323.15 K, 25000 kPa | 1051.73
323.15 K, 30000 kPa | 1055.85
323.15 K, 35000 kPa | 1059.82
323.15 K, 40000 kPa | 1063.67
323.15 K, 45000 kPa | 1067.38
323.15 K, 50000 kPa | 1070.98
323.15 K, 55000 kPa | 1074.48
323.15 K, 60000 kPa | 1077.86
323.15 K, 65000 kPa | 1081.13
328.15 K, 100 kPa | 1022.43
328.15 K, 2000 kPa | 1024.49
328.15 K, 5000 kPa | 1027.57
328.15 K, 7000 kPa | 1029.6
328.15 K, 10000 kPa | 1032.58
328.15 K, 15000 kPa | 1037.33
328.15 K, 20000 kPa | 1041.91
328.15 K, 25000 kPa | 1046.31
328.15 K, 30000 kPa | 1050.54
328.15 K, 35000 kPa | 1054.61
328.15 K, 40000 kPa | 1058.55
328.15 K, 45000 kPa | 1062.36
328.15 K, 50000 kPa | 1066.05
328.15 K, 55000 kPa | 1069.6
328.15 K, 60000 kPa | 1073.07
328.15 K, 65000 kPa | 1076.42
333.15 K, 100 kPa | 1016.27
333.15 K, 2000 kPa | 1018.35
333.15 K, 5000 kPa | 1021.56
333.15 K, 7000 kPa | 1023.65
333.15 K, 10000 kPa | 1026.72
333.15 K, 15000 kPa | 1031.63
333.15 K, 20000 kPa | 1036.34
333.15 K, 25000 kPa | 1040.87
333.15 K, 30000 kPa | 1045.21
333.15 K, 35000 kPa | 1049.39
333.15 K, 40000 kPa | 1053.43
333.15 K, 45000 kPa | 1057.32
333.15 K, 50000 kPa | 1061.09
333.15 K, 55000 kPa | 1064.72
333.15 K, 60000 kPa | 1068.26
333.15 K, 65000 kPa | 1071.7
338.15 K, 100 kPa | 1010.08
338.15 K, 2000 kPa | 1012.22
338.15 K, 5000 kPa | 1015.53
338.15 K, 7000 kPa | 1017.69
338.15 K, 10000 kPa | 1020.86
338.15 K, 15000 kPa | 1025.92
338.15 K, 20000 kPa | 1030.78
338.15 K, 25000 kPa | 1035.41
338.15 K, 30000 kPa | 1039.88
338.15 K, 35000 kPa | 1044.17
338.15 K, 40000 kPa | 1048.31
338.15 K, 45000 kPa | 1052.28
338.15 K, 50000 kPa | 1056.13
338.15 K, 55000 kPa | 1059.87
338.15 K, 60000 kPa | 1063.48
338.15 K, 65000 kPa | 1066.99
